Values quoted from earlier work as cited in patent publication US9339034B2, “Use of thaxtomin for selective control of rice and aquatic based weeds” (MARRONE BIO INNOVATIONS, INC., priority 2009, dated 2016).

Tested on: weeds
Settings: in vivo; cited from earlier work

## C=C(CO)C(C)(O)CC(=O)O (stereo not shown) [mevalocidin]
  time to kill weeds: 3-4 weeks
